Key:
[1] = test system: HTLV-I-infected T-lymph cell lines (MT-2, MT-4, HUT-102, ED-40515 (−)); test: Measurement of proliferation potency of HTLV-I-infected T-lymph cell lines (WST-8 cell survival rate); format: cell-based; settings: for effect on the growth of HTLV-I-infected T-lymph cell lines: 10, 5, 2.5 μM, FIG. 3; for effect on the growth of HTLV-I-infected T-lymph cell lines / growth of HTLV-I-infected T-lymph cell lines (cell survival rate): WST-8; for growth of HTLV-I-infected T-lymph cell lines (cell survival rate): 10, 5, 2.5, 1.25, 0.625 μM, FIG. 1
Procedure: (§1) After adding “WST-8” (manufactured by Wako Pure Chemical Industries, Ltd.) in an amount of 5 μL/well as a coloring substrate, cells were cultured for four hours at 37° C.
(§2) Cell survival rate (%)=[1−(A−B)/A]×100 [Formula 1]
(§3) A: Absorbance without agent treatment
(§4) A: Absorbance with agent treatment

[2] = test system: EBV-infected B cell lines (Raji, Daudi, B95-8/BJAB, B95-8/Ramos, LCL-Ka, LCL-Ku); test: Measurement of proliferation potency of EBV-infected B cell lines (WST-8 cell survival rate); format: cell-based; settings: 24 hours; for growth of EBV-infected BL cell lines (cell survival rate): 10, 5, 2.5, 1.25, 0.625 μM, WST-8, FIG. 2
Procedure: as §1, §2, §3, §4

[3] = test system: PBMC (leukemia cells) of adult T-cell-leukemia (ATL) patients; test: Measurement of proliferation potency of peripheral blood mononuclear cells of ATL patients (WST-8); format: cell-based, human; settings: 24 hours; for growth of leukemia cells in ATL patients (PBMC survival rate): five ATL patients, fucoxanthin 0.625-10 μM, fucoxanthinol 0.625-2.5 μM, FIG. 4
PBMC of a healthy person = test: Measurement of proliferation potency of peripheral blood mononuclear cells of a healthy person (WST-8); settings: for action on normal cells: normal cells versus HTLV-1-infected cells and ATL cells
Procedure: First, the peripheral blood mononuclear cells (PBMC) were separated by the Ficoll centrifugal specific gravity method. The cells were diluted with an RPMI 1640 culture medium containing 10% fetal bovine serum to 2×10^6 cells/mL and spread over a 96-well plate in an amount of 1×10^5 cells/well.
Next, 50 μL/well of fucoxanthin and fucoxanthinol were added to make final concentrations of 10, 5, 2.5, 1.25, and 0.625 μM (fucoxanthin) or 2.5, 1.25 and 0.625 μM (fucoxanthinol), followed by incubation at 37° C. for 24 hours. After adding WST-8 in an amount of 5 μL/well, the cells were cultured for four hours at 37° C. After culturing, absorbance at a wavelength of 450 nm was measured by a microplate reader to determine the survival rate of the cells using the above formula.

[4] = test system: HTLV-I-infected cell lines (MT-2, MT-4, HUT-102, ED-40515 (−)); test: Measurement of cell-cycle of HTLV-I-infected cell lines (propidium iodide, flow cytometry); format: cell-based; settings: 5 μM, 24 hours; FIG. 5
Procedure: 1×10^6 cells of HTLV-I-infected cell lines (MT-2, MT-4, HUT-102, ED-40515 (−)) were scattered over a cell culture plate, and 5 μM of fucoxanthin was added, followed by incubation at 37° C. for 24 hours. After 24 hours, the cells were collected and dyed with propidium iodide to measure the DNA content using a flow sight meter. The cell cycle of each cell was judged by calculating the distribution of the cell group of each cell cycle from the result of the DNA content.

[5] = test system: HTLV-I-infected cell lines (MT-2, MT-4, HUT-102, ED-40515 (−)); test: Measurement of apoptosis of HTLV-I-infected cell lines (annexin V, flow cytometry); format: cell-based
Procedure: After 24 hours, the cells were collected and dyed with annexin V to measure the rate (%) of apoptosis-positive cells using a flow sight meter.

[6] = HTLV-1-infected cells and ATL cells

| SMILES | effect on the growth of HTLV-I-infected T-lymph cell lines ([1]; 24 hours) | growth of HTLV-I-infected T-lymph cell lines (cell survival rate) ([1]; 24 hours) | growth of EBV-infected BL cell lines (cell survival rate) [2] | growth of leukemia cells in ATL patients (PBMC survival rate) [3] | action on normal cells (PBMC of a healthy person) | concentration causing apoptosis compared with β-carotene or astaxanthin [5, 6] | further results |
| --- | --- | --- | --- | --- | --- | --- | --- |
| CC1=C(/C=C/C(C)=C/C=C/C(C)=C/C=C/C=C(C)/C=C/C=C(C)/C=C/C2=C(C)C(=O)[C@@H](O)CC2(C)C)C(C)(C)C[C@H](O)C1=O [astaxanthin, reference compound] | only a slight effect | – | – | – | – | – | – |
| CC(=O)O[C@H]1CC(C)(C)C(=C=C/C(C)=C/C=C/C(C)=C/C=C/C=C(C)/C=C/C=C(\C)C(=O)C[C@@]23O[C@]2(C)C[C@@H](O)CC3(C)C)[C@](C)(O)C1 [fucoxanthin] | – | concentration-dependently suppressed the growth | concentration-dependently suppressed the growth | concentration-dependently suppressed the growth | substantially do not act on normal cells | significantly lower than the corresponding concentration of β-carotene or astaxanthin | effect on the cell cycle of HTLV-I-infected cell lines [4]: suspends the cell cycle of all HTLV-I-infected cell lines at the G1 phase; apoptosis of HTLV-I-infected cell lines (annexin V positive cells) ([5]; MT-2, MT-4, HUT-102, ED-40515 (−), 24 hours, FIG. 6): induces apoptosis in all HTLV-I infected cell lines; concentration dependence of apoptosis of MT-2 ([5]; MT-2, 10, 5, 2.5 μM, 24 hours, FIG. 7): concentration dependent |
| C\C(C=C=C1C(C)(C)C[C@H](O)C[C@@]1(C)O)=C/C=C/C(C)=C/C=C/C=C(C)/C=C/C=C(\C)C(=O)C[C@@]12O[C@]1(C)C[C@@H](O)CC2(C)C [fucoxanthinol] | – | concentration-dependently suppressed the growth | concentration-dependently suppressed the growth | concentration-dependently suppressed the growth | substantially do not act on normal cells | significantly lower than the corresponding concentration of β-carotene or astaxanthin | survival rate of the cells ([1]; HTLV-1-infected cells and ATL cells, at a concentration of one micromole or less): almost zero; capability to inhibit growth compared with fucoxanthin ([1]; HTLV-I-infected T-lymph cell lines, 24 hours): significantly higher than that of fucoxanthin; capability to inhibit growth compared with fucoxanthin ([2]; EBV-infected BL cell lines): significantly higher than that of fucoxanthin; effect on growth potency compared with fucoxanthin ([3]; PBMC of ATL patients): higher than that of fucoxanthin; toxicity against the PBMC of the healthy person (PBMC of a healthy person; fucoxanthin 0.625-10 μM, fucoxanthinol 0.625-2.5 μM, 24 hours, FIG. 4): no toxicity; concentration causing apoptosis [5, 6]: one micromole or less; apoptosis-inducing effect compared with fucoxanthin ([5]; MT-2, 24 hours): stronger than that of fucoxanthin; apoptosis of MT-2 (annexin V positive cells) ([5]; MT-2, 10, 5, 2.5, 1.25, 0.625 μM, 24 hours, FIG. 8): induces apoptosis in MT-2 |
| CC1=C(/C=C/C(C)=C/C=C/C(C)=C/C=C/C=C(C)/C=C/C=C(C)/C=C/C2=C(C)CCCC2(C)C)C(C)(C)CCC1 [β-carotene, reference compound] | only a slight effect | – | – | – | – | – | – |
